Assay in all cases: NCI tumour cell line growth inhibition, 48 h
In test [1] the test system is NCI-H23 lung.
The test system of test [2] is RPMI-8226 leukemia.
Test [3] has as its system MDA-N.
Test [4] deals with U251 CNS.
Test [5] concerns A549 NSCLC.
Test [6] has as its system OVCAR-8 ovarian.
The test system of test [7] is HL-60(TB) leukemia.
Test [8] concerns UACC-257 melanoma.
In test [9] the test system is M14 melanoma.
Test [10] concerns SR leukemia.
In test [11] the test system is CAKI-1 renal.
Test [12] has as its system MCF7 breast.
Test [13] concerns RXF 393 renal.
In test [14] the test system is LOX IMVI melanoma.
Test [15] concerns NCI-H522 lung.
In test [16] the test system is SF-539 CNS.
Test [17] relates to MALME-3M melanoma.
Test [18] relates to HT29 colon.
Test [19] deals with MDA-MB-231 breast.

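Growth conditions: 96-well plates. Treatment: test compound, 48 hours, 5 concentrations. Analysis: linear interpolation between bracketing concentrations; unreached endpoints set to highest concentration. At the TGI there is no net growth.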

In PubChem BioAssay (NCI) one finds TGI data, which are given here for nine molecules.

On to `CCNC12CCC(C1)C(C)(C)C2=O` (stereo unspecified), for which the TGI in test [1], in test [2], in [3], in test [4], in [5] and in test [6] was above 100 µM each time. Besides, the TGI in test [7], in test [8], in test [9], in test [10], in test [11] and in test [12] was above 100 µM throughout. Also, the TGI in test [13] and in test [14] was above 100 µM throughout.
With `CN(C)c1nncc2n[nH]nc12`, the TGI in test [1], in test [2], in test [15], in test [3], in test [4] and in test [16] was above 100 µM in each case. Moreover, the TGI in test [5], in test [6], in test [7], in test [8], in test [9] and in [10] was above 100 µM in each case. The TGI in test [11], in test [12], in test [17], in test [18] and in test [14] was above 100 µM in each case.
Turning to `COC1(OC)C=CC2C1C1C=CC2C1(OC)OC` (stereo unspecified), the TGI in [1], in [2], in test [15], in test [19], in test [4] and in test [16] was above 100 µM throughout. In addition, the TGI in test [5], in test [6], in test [8], in test [9], in [10] and in [11] was above 100 µM each time. Besides, the TGI in test [12], in test [17], in test [18], in test [13] and in test [14] was above 100 µM each time.
Take `COC(=O)[C@H]1COC(=O)N1`: the TGI in test [1], in test [15], in [19], in [3], in test [4] and in [16] was above 100 µM each time. The TGI in test [5], in test [6], in [7], in test [8], in test [9] and in test [11] was above 100 µM each time. Further, the TGI in [12], in test [17], in test [18], in [13] and in [14] was above 100 µM in each case.
With `O=c1c(-c2ccccc2F)coc2cc(F)ccc12`, the TGI in [1], in test [15], in test [19], in [3], in [4] and in test [16] was above 100 µM throughout. The TGI in test [5], in test [6], in test [7], in test [8], in [9] and in test [11] was above 100 µM in each case. The TGI in test [18], in [13] and in test [14] was above 100 µM each time.
In the case of `CCN(CC)Cc1ccc(C(=S)Nc2ccc(C)cc2)s1`, the TGI in [1] came out at 26.5 µM; in test [2], 46.8 µM; in test [15] it was 28.9 µM; in test [4], 30 µM; in test [16] it was 37.7 µM; in test [5], 36.1 µM. The TGI in test [6] worked out at 35.3 µM; in test [7], 27 µM; in [8], 24.1 µM; in test [9], 28.9 µM; in test [10] it was 37.6 µM; in test [11], 29.6 µM. Also, the TGI in test [12] came to 25.1 µM; in [17] it was 32.5 µM; in test [18], 14.4 µM; in test [14], 30.2 µM.
As to `Nc1ccc(C23CC4CC(C2)CC(c2ccc(N)cc2)(C4)C3)cc1`, the TGI in [1] was above 100 µM; in [2], 27.4 µM; in [3] it was above 100 µM; in test [4] it was 35.6 µM; in test [16], 31.1 µM; in test [5] it was above 100 µM. The TGI is above 100 µM in test [6]; 51 µM in test [7]; above 100 µM in [8]; 85.5 µM in test [9]; 38.5 µM in test [10]; above 100 µM in test [11]. Moreover, the TGI in test [12] and in test [14] was above 100 µM each time.
In the case of `CC(=O)OC[C@@]12Cc3ccc(C)c(O)c3[C@]1(C)[C@@H](OC(C)=O)[C@]1(O)[C@H]([C@@H](OC(=O)c3ccccc3)[C@@H](C)[C@H]1OC(C)=O)[C@H]2OC(C)=O`, the TGI in test [1], in test [15], in [19], in test [4], in [16] and in [6] was above 50 µM in each case. In addition, the TGI in test [7], in test [8], in [9], in [10], in [11] and in test [12] was above 50 µM throughout. Besides, the TGI in test [13] and in test [14] was above 50 µM throughout.
For `CC(C)(C)OC(=O)NCCCC(=O)NC1(c2cc3ccccc3s2)CCCCC1`, the TGI in [1] is 51 µM; in test [2], 29.6 µM; in test [15], 34.1 µM; in test [3], 34.2 µM; in test [16] it was 30.7 µM; in test [5] it was above 100 µM. Further, the TGI is 48.3 µM in [6]; 24.8 µM in test [7]; 31.9 µM in test [8]; 40.1 µM in test [9]; 27.9 µM in test [10]; 93.1 µM in test [11]. Besides, the TGI in test [12] was 41 µM; in test [17], 37 µM; in test [18], 30.6 µM; in test [13], 44.1 µM; in test [14], 29.6 µM.
